This is an account of results in patent publication US20080287430A1, “Furan Compounds Useful As Ep1 Receptor Antagonists” (priority 2005, published 2008).

Counter-ions that a name gives are not always drawn.

Experiment [1] has as its system rat model of chronic constriction injury. Particulars: Anesthesia and Analgesia 2001, 93, 1012-7; cited from earlier work.
Experiment [2] concerns rodent model of post-operative pain. Particulars: Anesthesia and Analgesia 2001, 92, 233-238; cited from earlier work.
The target in experiment [3] is T1, human EP1 receptor (Homo sapiens, UniProt P34995).
T1 construct: expressed in transfected cells; host or cells: CHO-K1
T1 sequence (P34995 1-402): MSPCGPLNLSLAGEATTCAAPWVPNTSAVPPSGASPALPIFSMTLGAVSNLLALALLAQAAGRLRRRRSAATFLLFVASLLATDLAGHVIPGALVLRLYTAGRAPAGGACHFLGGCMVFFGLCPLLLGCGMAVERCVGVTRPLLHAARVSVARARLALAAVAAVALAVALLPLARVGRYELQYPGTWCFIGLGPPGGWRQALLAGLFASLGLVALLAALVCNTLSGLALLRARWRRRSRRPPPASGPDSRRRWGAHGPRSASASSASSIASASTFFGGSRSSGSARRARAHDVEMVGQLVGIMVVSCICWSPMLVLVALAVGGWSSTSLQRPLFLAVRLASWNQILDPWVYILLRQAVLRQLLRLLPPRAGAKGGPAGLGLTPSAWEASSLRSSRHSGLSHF
The experiment can be described thus: Binding assay for the human prostanoid EP1 receptor (competition with [3H]-PGE2). The following applies: binding to human EP1 receptor, [3H]-PGE2 competition, CHO-K1 cell membranes; averages of a number of experiments; read-out: pIC50 value (converted). The procedure:
Competition assay using [^3H]-PGE2.
Compound potencies are determined using a radioligand binding assay. In this assay compound potencies are determined from their ability to compete with tritiated prostaglandin E2 ([^3H]-PGE2) for binding to the human EP1 receptor.
This assay utilises Chinese hamster ovary-K1 (CHO-K1) cells into which a stable vector containing the EP1 cDNA has previously been transfected. Cells are cultured in suitable flasks containing culture medium such as DMEM:F-12 supplemented with 10% v/v foetal calf serum, 2 mM L-glutamine, 0.25 mg/ml geneticin, 10 μg/ml puromycin and 10 μM indomethacin.
Cells are detached from the culture flasks by incubation in calcium and magnesium free phosphate buffered saline containing 1 mM disodium ethylenediaminetetraacetic acid (Na2EDTA) and 10 μM indomethacin for 5 min. The cells are isolated by centrifugation at 250×g for 5 mins and suspended in an ice cold buffer such as 50 mM Tris, 1 mM Na2EDTA, 140 mM NaCl, 10 μM indomethacin (pH 7.4). The cells are homogenised using a Polytron tissue disrupter (2×10 s burst at full setting), centrifuged at 48,000×g for 20 mins and the pellet containing the membrane fraction is washed (optional) three times by suspension and centrifugation at 48,000×g for 20 mins. The final membrane pellet is suspended in an assay buffer such as 10 mM 2-[N-morpholino]ethanesulphonic acid, 1 mM Na2EDTA, 10 mM MgCl2 (pH 6). Aliquots are frozen at −80° C. until required.
For the binding assay the cell membranes, competing compounds and [^3H]-PGE2 (3 nM final assay concentration) are incubated in a final volume of 100 μl for 30 min at 30° C. All reagents are prepared in assay buffer. Reactions are terminated by rapid vacuum filtration over GF/B filters using a Brandell cell harvester. The filters are washed with ice cold assay buffer, dried and the radioactivity retained on the filters is measured by liquid scintillation counting in Packard TopCount scintillation counter.
The data are analysed using non linear curve fitting techniques to determine the concentration of compound producing 50% inhibition of specific binding (IC50).

Experiment [4] addresses T1, human EP1 receptor. The experiment can be described thus: human EP1 calcium mobilisation assay. The format is cell-based. The following applies: human EP1, PGE2-induced calcium mobilisation in CHO-K1 cells; free bases or sodium salts; averages of a number of experiments; read-out: functional pKi value (converted). An outline of the steps: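 CHO-K1 cells stably expressing human EP1, loaded with Fluo-4 after 24 h at 37° C; compounds added before PGE2 challenge. Inhibition of PGE2-induced [Ca2+]i rise read by FLIPR fluorescence; pIC50 from curve fitting of half-maximal inhibition.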

The test system of experiment [5] is gastric lesions in rats. The following applies: lesions induced by taurocholate acid, aspirin or indomethacin, J Pharmacol Exp Ther 1992, 263(1), 374-380; cited from earlier work.

With `Cc1cc(Cl)ccc1S(=O)(=O)NC[C@H]1C2CCC(CC2)[C@@H]1/C=C\CCCC(=O)O` [ONO-8711], the hyperalgesia and allodynia entry in experiment [1] is “reduces hyperalgesia and allodynia”. For the same molecule, the mechanical hyperalgesia entry in experiment [2] was “inhibits mechanical hyperalgesia”.
As for `O=C(O)c1ccc(Cc2cc(Cl)ccc2OCc2ccc(F)cc2F)o1` [Example 19, Sodium 5-[(5-chloro-2-{[(2,4-difluorophenyl)methyl]oxy}phenyl)methyl]-2-furancarboxylate], the IC50 in experiment [3] is no more than 0.01 µM. Also, the Ki in experiment [4] was less than 1 µM.
The matching figures for `CC(C)COc1ccc(Cl)cc1Cc1ccc(-c2nc3ccc(N4CCOCC4)cc3[nH]2)o1` [Example 112, 2-[5-({5-Chloro-2-[(2-methylpropyl)oxy]-phenyl}methyl)-2-furanyl]-5-(4-morpholinyl)-1H-benzimidazoledihydrochloride]: no more than 0.01 µM and less than 1 µM.
Take `O=C(O)c1ccc(Cc2cc(Cl)ccc2OCc2ccc(Cl)cc2F)o1` [Example 23, Sodium 5-[(5-chloro-2-{[(4-chloro-2-fluorophenyl)methyl]oxy}phenyl)methyl]-2-furancarboxylate]: in experiment [3], the IC50 is no more than 0.01 µM. The Ki in experiment [4] was no more than 0.01 µM.
As to `O=C(O)Cc1ccc(CCNS(=O)(=O)c2ccc(Cl)cc2)cc1` [BM 13505], the gastric lesions entry in experiment [5] was “inhibit gastric lesions”.
With `CC(C)COc1ccc(Cl)cc1Cc1ccc(-c2nc3ccc(CN(C)C)cc3[nH]2)o1` [Example 142, ({2-[5-({5-Chloro-2-[(2-methylpropyl)oxy]-phenyl}methyl)-2-furanyl]-1H-benzimidazol-5-yl}methyl)dimethyl-amine dihydrochloride], the IC50 in experiment [3] was no more than 0.01 µM. Further, in experiment [4], the Ki is less than 1 µM.
The corresponding values for `CC(C)COc1ccc(Cl)cc1Cc1ccc(-c2nc3ccc(CN4CCN(C)CC4)cc3[nH]2)o1` [Example 145, 2-[5-({5-Chloro-2-[(2-methylpropyl)oxy]-phenyl}methyl)-2-furanyl]-5-[(4-methyl-1-piperazinyl)methyl]-1H-benzimidazoletrihydrochloride] are no more than 0.01 µM and less than 1 µM.
The matching figures for `O=C(O)c1ccc(Cc2cc(Cl)ccc2OC2CCCC2)o1` [Example 5, Sodium 5-{[5-chloro-2-(cyclopentyloxy)phenyl]methyl}-2-furancarboxylate]: no more than 0.01 µM and no more than 0.01 µM.
As to `CC(C)COc1ccc(Cl)cc1Cc1ccc(-c2nc3ccc(N(C)C)cc3[nH]2)o1` [Example 113, 2-[5-({5-Chloro-2-[(2-methylpropyl)oxy]-phenyl}methyl)-2-furanyl]-N,N-dimethyl-1H-benzimidazol-5-aminedihydrochloride], in experiment [3], the IC50 was no more than 0.01 µM. Besides, the Ki in experiment [4] was less than 1 µM.
The corresponding values for `COc1ccc2[nH]c(-c3ccc(Cc4cc(Cl)ccc4OCC(C)C)o3)nc2c1` [Example 105, 2-[5-({5-Chloro-2-[(2-methylpropyl)oxy]-phenyl}methyl)-2-furanyl]-5-(methyloxy)-1H-benzimidazole] are no more than 0.01 µM and less than 1 µM.
The matching figures for `CC(C)COc1ccc(Cl)cc1Cc1ccc(-c2nc3nc(Br)cnc3[nH]2)o1` [Example 136, 5-Bromo-2-[5-({5-chloro-2-[(2-methylpropyl)oxy]phenyl}methyl)-2-furanyl]-1H-imidazo[4,5-b]pyrazine hydrochloride]: no more than 0.01 µM and greater than 1 µM.
As to `O=C(O)c1ccc(Cc2cc(Cl)ccc2OCC2CC2)o1` [Example 3, Sodium 5-({5-chloro-2-[(cyclopropylmethyl)oxy]phenyl}methyl)-2-furancarboxylate], in experiment [3], the IC50 is no more than 0.01 µM. For the same molecule, the Ki in experiment [4] is less than 1 µM.
`COc1nccc2[nH]c(-c3ccc(Cc4cc(Cl)ccc4OCC(C)C)o3)nc12` [Example 104, 2-[5-({5-Chloro-2-[(2-methylpropyl)oxy]-phenyl}methyl)-2-furanyl]-4-(methyloxy)-1H-imidazo[4,5-c]pyridine]: the IC50 in experiment [3] is no more than 0.01 µM. Moreover, in experiment [4], the Ki is no more than 0.01 µM.
Regarding `CCC(CC)COc1ccc(Cl)cc1Cc1ccc(C(=O)O)o1` [Example 7, Sodium 5-({5-chloro-2-[(2-ethylbutyl)oxy]phenyl}methyl)-2-furancarboxylate], the IC50 in experiment [3] was no more than 0.01 µM. The Ki in experiment [4] is no more than 0.01 µM.
Regarding `O=C(O)c1ccc(Cc2cc(Cl)ccc2OCc2cc(F)c(F)cc2F)o1` [Example 25, Sodium 5-[(5-chloro-2-{[(2,4,5-trifluorophenyl)methyl]oxy}phenyl)methyl]-2-furancarboxylate], the IC50 in experiment [3] is no more than 0.01 µM. Moreover, the Ki in experiment [4] is no more than 0.01 µM.
In the case of `CC(C)COc1ccc(Cl)cc1Cc1ccc(C(=O)NCc2ccccc2)o1` [Example 57, 5-({5-Chloro-2-[(2-methylpropyl)oxy]-phenyl}methyl)-N-(phenylmethyl)-2-furancarboxamide], the IC50 in experiment [3] is no more than 0.01 µM. The Ki in experiment [4] is no more than 0.01 µM.
`CC(C)COc1ccc(Cl)cc1Cc1ccc(-c2nc3ccc(CNCCO)cc3[nH]2)o1` [Example 156, 2-[({2-[5-({5-Chloro-2-[(2-methylpropyl)oxy]-phenyl}methyl)-2-furanyl]-1H-benzimidazol-5-yl}methyl)amino]-ethanol]: the IC50 in experiment [3] is no more than 0.01 µM. Further, in experiment [4], the Ki is less than 1 µM.
The matching figures for `CC(C)COc1ccc(Cl)cc1Cc1ccc(-c2nc3cc(N4CCN(C)CC4)ccc3[nH]2)o1` [Example 111, 2-[5-({5-Chloro-2-[(2-methylpropyl)oxy]-phenyl}methyl)-2-furanyl]-5-(4-methyl-1-piperazinyl)-1H-benzimidazoletrihydrochloride]: no more than 0.01 µM and less than 1 µM.
The matching figures for `CC(C)COc1ccc(Cl)cc1Cc1ccc(-c2nc3nccnc3[nH]2)o1` [Example 106, 2-[5-({5-Chloro-2-[(2-methylpropyl)oxy]-phenyl}methyl)-2-furanyl]-1H-imidazo[4,5-b]pyrazine]: no more than 0.01 µM and no more than 0.01 µM.
The matching figures for `CC(C)COc1ccc(Cl)cc1Cc1ccc(-c2nc3cnccc3[nH]2)o1` [Example 117, 2-[5-({5-Chloro-2-[(2-methylpropyl)oxy]phenyl}-methyl)-2-furanyl]-1H-imidazo[4,5-c]pyridine]: no more than 0.01 µM and less than 1 µM.
